According to ChEMBL document CHEMBL1127761, “Two new phospholipase d inhibitors, sch 49211 and sch 49212, produced by the fungus nattrasia mangirferae” (Bioorg Med Chem Lett, 1994):

System: HL-60
Test: In vitro inhibitory activity against phospholipase D (PLD) activation in HL-60 cells by phospholipase D assay
Type: cell-based
Conditions: Homo sapiens

Row | IC50 [µM] | Compound
1 | 11 | O=C1C(O)=CC2(Oc3cccc4cccc(c34)O2)[C@@]23O[C@@]12[C@@H](O)C=C[C@H]3O
2 | 12 | O=C1C(O)=CC2(Oc3cccc4cccc(c34)O2)[C@@]23O[C@@]12[C@@H](O)CC[C@H]3O
